Measurements from PubChem BioAssay (NCI).
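GI50: concentration for 50% inhibition of growth. TGI denotes the concentration required for complete inhibition of growth.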

Legend:
Assay in all cases: DTP human tumour cell line panel, 384-well format
[1] = tested on: 786-0 renal
[2] = tested on: A498 renal
[3] = tested on: A549 NSCLC
[4] = tested on: ACHN renal
[5] = tested on: BT-549 breast
[6] = tested on: CAKI-1 renal
[7] = tested on: COLO 205 colon
[8] = tested on: DU-145 prostate
[9] = tested on: EKVX NSCLC
[10] = tested on: HCT-116 colon
[11] = tested on: HCT-15 colon
[12] = tested on: HL-60(TB) leukemia
[13] = tested on: HOP-62 NSCLC
[14] = tested on: HOP-92 NSCLC
[15] = tested on: HS 578T breast
[16] = tested on: HT29 colon
[17] = tested on: IGROV1 ovarian
[18] = tested on: K-562 leukemia
[19] = tested on: KM12 colon
[20] = tested on: M14 melanoma
[21] = tested on: MALME-3M melanoma
[22] = tested on: MCF7 breast
[23] = tested on: MDA-MB-231 breast
[24] = tested on: MDA-MB-435 melanoma
[25] = tested on: MDA-MB-468 breast
[26] = tested on: MOLT-4 leukemia
[27] = tested on: NCI-H226 lung
[28] = tested on: NCI-H23 lung
[29] = tested on: NCI-H322M lung
[30] = tested on: NCI-H460 NSCLC
[31] = tested on: NCI-H522 lung
[32] = tested on: OVCAR-3 ovarian
[33] = tested on: OVCAR-4 ovarian
[34] = tested on: OVCAR-5 ovarian
[35] = tested on: OVCAR-8 ovarian
[36] = tested on: PC-3 prostate
[37] = tested on: RXF 393 renal
[38] = tested on: SF-268 CNS
[39] = tested on: SF-295 CNS
[40] = tested on: SF-539 CNS
[41] = tested on: SK-MEL-2 melanoma
[42] = tested on: SK-MEL-28 melanoma
[43] = tested on: SK-MEL-5 melanoma
[44] = tested on: SK-OV-3 ovarian
[45] = tested on: SN12C renal
[46] = tested on: SNB-19 CNS
[47] = tested on: SNB-75 CNS
[48] = tested on: SR leukemia
[49] = tested on: SW-620 colon
[50] = tested on: T-47D breast
[51] = tested on: TK-10 renal
[52] = tested on: U251 glioblastoma
[53] = tested on: UACC-257 melanoma
[54] = tested on: UACC-62 melanoma
[55] = tested on: UO-31 renal

SMILES: CC(C)[C@H]1C(=O)N[C@@H](CCCN=C(N)N)C(=O)NCC(=O)N[C@@H](CC(=O)O)C(=O)N[C@H](Cc2ccccc2)C(=O)N1C
- GI50 [1]: 7.76 µM
- TGI [1]: > 100 µM
- GI50 [2]: 0.765 µM
- TGI [2]: > 100 µM
- GI50 [3]: 39.3 µM
- TGI [3]: > 100 µM
- GI50 [4]: 4.33 µM
- TGI [4]: > 100 µM
- GI50 [5]: 2.13 µM
- TGI [5]: > 100 µM
- GI50 [6]: 0.72 µM
- TGI [6]: 14.4 µM
- GI50 [7]: > 100 µM
- TGI [7]: > 100 µM
- GI50 [8]: 8.01 µM
- TGI [8]: > 100 µM
- GI50 [9]: 2.3 µM
- TGI [9]: 9.86 µM
- GI50 [10]: 26.7 µM
- TGI [10]: > 100 µM
- GI50 [11]: > 100 µM
- TGI [11]: > 100 µM
- GI50 [12]: 42.7 µM
- TGI [12]: > 100 µM
- GI50 [13]: 4.51 µM
- TGI [13]: > 100 µM
- GI50 [14]: 6.51 µM
- TGI [14]: > 100 µM
- GI50 [15]: 3.76 µM
- TGI [15]: > 100 µM
- GI50 [16]: 53.1 µM
- TGI [16]: > 100 µM
- GI50 [17]: 2.38 µM
- TGI [17]: > 100 µM
- GI50 [18]: 37.7 µM
- TGI [18]: > 100 µM
- GI50 [19]: 42.5 µM
- TGI [19]: > 100 µM
- GI50 [20]: > 100 µM
- TGI [20]: > 100 µM
- GI50 [21]: > 100 µM
- TGI [21]: > 100 µM
- GI50 [22]: 13.9 µM
- TGI [22]: > 100 µM
- GI50 [23]: 35.5 µM
- TGI [23]: > 100 µM
- GI50 [24]: > 100 µM
- TGI [24]: > 100 µM
- GI50 [25]: 59.8 µM
- TGI [25]: > 100 µM
- GI50 [26]: 5.83 µM
- TGI [26]: 18 µM
- GI50 [27]: 5.9 µM
- TGI [27]: > 100 µM
- GI50 [28]: > 100 µM
- TGI [28]: > 100 µM
- GI50 [29]: > 100 µM
- TGI [29]: > 100 µM
- GI50 [30]: 58.3 µM
- TGI [30]: > 100 µM
- GI50 [31]: 3.98 µM
- TGI [31]: > 100 µM
- GI50 [32]: 53.9 µM
- TGI [32]: > 100 µM
- GI50 [33]: 7.1 µM
- TGI [33]: > 100 µM
- GI50 [34]: 74.5 µM
- TGI [34]: > 100 µM
- GI50 [35]: 11 µM
- TGI [35]: > 100 µM
- GI50 [36]: > 100 µM
- TGI [36]: > 100 µM
- GI50 [37]: 0.194 µM
- TGI [37]: 0.858 µM
- GI50 [38]: 3.29 µM
- TGI [38]: > 100 µM
- GI50 [39]: > 100 µM
- TGI [39]: > 100 µM
- GI50 [40]: 27.2 µM
- TGI [40]: > 100 µM
- GI50 [41]: > 100 µM
- TGI [41]: > 100 µM
- GI50 [42]: > 100 µM
- TGI [42]: > 100 µM
- GI50 [43]: > 100 µM
- TGI [43]: > 100 µM
- GI50 [44]: 41.8 µM
- TGI [44]: > 100 µM
- GI50 [45]: > 100 µM
- TGI [45]: > 100 µM
- GI50 [46]: 15.7 µM
- TGI [46]: > 100 µM
- GI50 [47]: 0.226 µM
- TGI [47]: 0.871 µM
- GI50 [48]: 2.59 µM
- TGI [48]: 12.2 µM
- GI50 [49]: 37.8 µM
- TGI [49]: > 100 µM
- GI50 [50]: 38.3 µM
- TGI [50]: > 100 µM
- GI50 [51]: 2 µM
- TGI [51]: > 100 µM
- GI50 [52]: 8.88 µM
- TGI [52]: > 100 µM
- GI50 [53]: > 100 µM
- TGI [53]: > 100 µM
- GI50 [54]: 70.8 µM
- TGI [54]: > 100 µM
- GI50 [55]: 5.4 µM
- TGI [55]: 99.4 µM
